Assay results reported in patent publication US20240181092A1, “DIAGNOSTIC METHODS OF PROSTATE CANCER” (NOVARTIS AG, priority 2021, published 2024).
“Also recorded” adds a separate entry of the source. Where two headings read alike, the source gives them in different places.

How the values were obtained:
[1] = Human dosimetry in the Phase I study; format: in vivo; conditions: i.v. administration of 370 MBq
Excerpt: For PET diagnostic radiopharmaceuticals, only a single administration is required, usually intravenously. The investigational PET radiopharmaceutical [^18F]CTT1057 will be administered accordingly, as a single intravenous (i.v.) dose of approximately 370 MBq (266-407 MBq). […] Eur J Nucl Med Mol Imaging; 42:328-54). Human dosimetry was studied in the Phase I study. The effective dose was estimated at 0.023±0.007 mSv/MBq, which is in line as well with the effective dose of the commercial product [18F]FDG (0.019 mSv/MBq) according to the EANM guideline (Boellaard R, Delgado-Bolton R, Oyen WJG, et al (2015) FDG PET/CT: EANM procedure guidelines for tumour imaging: version 2.0. Eur J Nucl Med Mol Imaging; 42:328-54) and in other publications (0.020-0.025 mSv/MBq) (Kaushik A, Jaimini A, Tripathi M, et al (2015) Estimation of radiation dose to patients from (18) FDG whole body PET/CT investigations using dynamic PET scan protocol. Indian J Med Res; 142:721-31), as well as the effective dose of other PSMA PET agents (Behr SC, Aggarwal R, VanBrocklin HF, et al (2019) Phase I Study of CTT1057, an 18F-Labeled Imaging Agent with Phosphoramidate Core Targeting Prostate-Specific Membrane Antigen in Prostate Cancer. J Nucl Med; 60(7):910-6). The radiation dose estimated from an i.v. administration of 370 MBq of [18F]CTT1057 is 8.51 mSV. […]

[2] = target: T1, PSMA (Homo sapiens, UniProt Q04609); conditions: phosphoramidate scaffold, irreversible binding; cited from earlier work
[3] = human dosimetry, Phase I study; cited from earlier work
[4] = Phase I, 20 prostate cancer patients (n=5 primary staging, n=15 mCRPC), approx. 370 MBq i.v.; cited from earlier work
[5] = versus urea-based PET compounds; cited from earlier work
[6] = target: T1, PSMA; parameters: The [^18F]CTT1057 Phase-I study in 20 prostate cancer patients; from tissue; host or cells: tumour lesions in prostate cancer patients, imaged in vivo by PET; results quoted from Behr et al 2019 and Behr et al 2017; conditions: cited from earlier work
[7] = cited from earlier work
[8] = retrospective analysis of 1007 participants; cited from earlier work
[9] = system: prostate cancer tumors; conditions: cited from earlier work

T1 sequence (Q04609 whole entry): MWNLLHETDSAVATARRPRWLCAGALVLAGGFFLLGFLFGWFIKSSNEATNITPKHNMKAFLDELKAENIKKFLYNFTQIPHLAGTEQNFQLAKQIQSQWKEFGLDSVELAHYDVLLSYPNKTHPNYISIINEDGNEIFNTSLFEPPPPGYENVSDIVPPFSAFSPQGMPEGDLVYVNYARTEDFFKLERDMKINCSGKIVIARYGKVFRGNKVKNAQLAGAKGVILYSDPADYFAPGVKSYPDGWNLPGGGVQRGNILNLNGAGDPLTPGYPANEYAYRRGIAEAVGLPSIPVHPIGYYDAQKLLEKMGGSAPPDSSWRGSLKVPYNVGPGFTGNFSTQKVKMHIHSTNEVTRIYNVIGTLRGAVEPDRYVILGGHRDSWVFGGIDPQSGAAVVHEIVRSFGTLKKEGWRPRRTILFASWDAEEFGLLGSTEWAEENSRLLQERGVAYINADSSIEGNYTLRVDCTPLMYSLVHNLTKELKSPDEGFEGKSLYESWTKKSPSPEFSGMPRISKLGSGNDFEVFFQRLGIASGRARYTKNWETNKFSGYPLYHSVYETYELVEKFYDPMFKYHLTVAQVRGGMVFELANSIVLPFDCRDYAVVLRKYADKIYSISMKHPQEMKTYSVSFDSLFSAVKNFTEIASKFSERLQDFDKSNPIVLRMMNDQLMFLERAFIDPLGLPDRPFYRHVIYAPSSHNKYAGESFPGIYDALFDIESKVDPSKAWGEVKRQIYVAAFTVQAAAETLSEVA

Q: For `O=C(O)CC[C@H](NP(=O)(O)OCCC[C@H](NC(=O)CC[C@H](NC(=O)CCCCCNC(=O)c1ccc([18F])cc1)C(=O)O)C(=O)O)C(=O)O` [[^18F]CTT1057], which “radiation dose estimated from an i.v. administration” value [1] is on record?
A: 8.51 mSV

Q: What about the “binding affinity to PSMA” value [2] of the same compound?
A: irreversibly binds to PSMA with high nanomolar affinity

Q: And the effective dose [3]?
A: 0.023±0.007 mSv/MBq

Q: What about the safety and tolerability [4] of the same compound?
A: acceptable safety profile without any radiotracer-related adverse reactions; also recorded: safe and well tolerated; also recorded: acceptable safety profile, without any radiotracer-related adverse reactions; also recorded: study has shown an acceptable safety profile without any radiotracer-related

Q: And the “exposure to kidneys and salivary glands” value [5]?
A: lower exposure to kidneys and salivary glands

Q: And the “sensitivity of detection of metastatic lesions versus conventional imaging” value ([6]; Phase I study)?
A: higher sensitivity

Q: What about the “image quality versus [68Ga]Ga-PSMA-11 PET” value ([6]; another smaller study (Behr et al 2017)) of the same compound?
A: qualitatively similar

Q: What about the “image quality on a Visual Analog Scale (VAS) of 1 to 100” value ([6]; approx. 370 MBq i.v., 1=nondiagnostic, 100=perfect study, rated by 2 Nuclear Medicine physicians) of the same compound?
A: 76±5.4

Q: Which results are given for `OC[C@H]1OC(O)[C@H]([18F])[C@@H](O)[C@@H]1O` (stereo partly shown) [[18F]FDG, [18F]Fluorodeoxyglucose]?
A: effective dose ([7]; according to the EANM guideline): 0.019 mSv/MBq; effective dose ([7]; other publications (Kaushik et al 2015)): 0.020-0.025 mSv/MBq

Q: With `O=C([O-])CN(CCN(CC(=O)[O-])Cc1cc(CCC(=O)NCCCCCC(=O)NCCCC[C@H](NC(=O)N[C@@H](CCC(=O)O)C(=O)O)C(=O)O)ccc1[O-])Cc1cc(CCC(=O)O)ccc1[O-].[68Ga+3].[OH3+]` [[^68Ga]Ga-PSMA-11] as the compound, how does the “tolerability, adverse events following infusion” value [8] read?
A: well tolerated with no adverse events following infusion

Q: What about the “detection rates versus [18F]Fluciclovine” value ([9]; after radical prostatectomy, PSA <2.0 ng/ml, per-patient and per-region basis (Calais et al 2018)) of the same compound?
A: superior

Q: And the “overall detection rate for prostate cancer recurrence versus [18F]Fluciclovine” value ([9]; larger prospective head-to-head study (Pernthaler et al 2019))?
A: no statistical differences
